Data on 13 compounds can be found in patent US7994185B2, “Benzene sulfonamide thiazole and oxazole compounds” (Glaxo Smith Kline LLC, priority 2008, dated 2011).

The structures appear in SMILES notation. Like-named read-outs stand apart in the source and are kept apart here.

Experiment [1] addresses T1, BRAFV600E full-length (amino acids 2-766) (Homo sapiens, UniProt P15056, V600E).
T1 construct: His6-tagged BRAFV600E full-length (amino acids 2-766); His6; made in house; host or cells: baculovirus expression system (insect cells)
Kind of experiment: B-Raf Accelerated MEK ATPase assay (BRAMA). The format is biochemical. A digest of the protocol: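 Coupled-enzyme readout: ADP generated by MEK-mediated ATP hydrolysis, uncoupled from ERK phosphorylation, is linked to NADH oxidation through pyruvate kinase and lactate dehydrogenase.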

Experiment [2] deals with Human colon tumor cells (Colo205). Kind of experiment: Cell growth inhibition assay (CellTiter-Glo), Colo205. It counts as cell-based. A digest of the protocol:
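Read-out was CellTiter-Glo luminescence (total ATP as a cell-number surrogate), expressed as % inhibition against DMSO vehicle wells. Before that, cells grown in RPMI/10% FBS were treated for 3 days at 37 °C with ten 1:3-spaced compound concentrations, final DMSO 0.2%.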
(ATP-based viability assays read luminescence as a measure of living cells.)

Experiment [3] concerns Human melanoma cancer cells (SK-MEL-28). Briefly: Cell growth inhibition assay (CellTiter-Glo), SK-MEL-28. It counts as cell-based.
[4] abbreviates: B-Raf Activity, Table 1a, highest pIC50 for the one or more runs, categorized.
[5] abbreviates: B-Raf pIC50, Table 1b, later runs, average pIC50 for the one or more runs, categorized.
Where [6] appears, read: COLO 205, 72 h, Table 2a, 3 days incubation, read-out: Activity in Colo205 Tumor Cells.
The mark [7] stands for this setting: COLO 205, Table 2b, later runs, average for the one or more runs, categorized, read-out: IC50 for Colo205.
Where [8] appears, read: SK-MEL-28, 72 h, Table 3a, 3 days incubation, read-out: Activity in SK-MEL-28 Tumor Cells.
[9] abbreviates: SK-MEL-28, Table 3b, later runs, average for the one or more runs, categorized, read-out: IC50 for SK-MEL-28.
Setting [10] is: Table 1b, later runs, average pIC50 for the one or more runs, categorized, read-out: B-Raf pIC50 (converted).

T1 sequence (P15056 2-766 V600E): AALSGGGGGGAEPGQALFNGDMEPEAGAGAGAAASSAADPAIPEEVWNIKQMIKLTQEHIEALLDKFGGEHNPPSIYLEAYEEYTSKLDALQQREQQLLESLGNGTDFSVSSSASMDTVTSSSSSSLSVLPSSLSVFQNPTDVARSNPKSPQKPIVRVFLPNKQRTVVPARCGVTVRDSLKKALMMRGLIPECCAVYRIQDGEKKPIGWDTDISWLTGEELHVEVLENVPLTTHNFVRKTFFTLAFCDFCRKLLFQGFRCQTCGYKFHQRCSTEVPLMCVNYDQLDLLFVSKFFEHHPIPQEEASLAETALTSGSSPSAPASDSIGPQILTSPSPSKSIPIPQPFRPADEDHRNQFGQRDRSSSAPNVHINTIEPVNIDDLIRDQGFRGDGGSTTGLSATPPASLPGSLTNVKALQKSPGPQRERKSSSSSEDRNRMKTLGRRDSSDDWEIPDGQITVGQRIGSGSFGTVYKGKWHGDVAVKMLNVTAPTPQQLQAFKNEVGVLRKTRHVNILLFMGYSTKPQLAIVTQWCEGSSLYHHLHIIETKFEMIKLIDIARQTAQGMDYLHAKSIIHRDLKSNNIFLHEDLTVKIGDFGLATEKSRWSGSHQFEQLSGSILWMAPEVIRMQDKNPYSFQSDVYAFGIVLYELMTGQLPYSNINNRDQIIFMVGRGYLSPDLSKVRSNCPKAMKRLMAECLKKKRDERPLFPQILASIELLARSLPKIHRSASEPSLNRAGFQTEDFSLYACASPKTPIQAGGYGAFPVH

Regarding `CS(=O)(=O)N1CCC(Nc2nccc(-c3sc(C4CCC4)nc3-c3cccc(NS(=O)(=O)c4cc(F)ccc4F)c3F)n2)CC1` [Example 81, N-{3-[2-Cyclobutyl-5-(2-{[1-(methylsulfonyl)-4-piperidinyl]amino}-4-pyrimidinyl)-1,3-thiazol-4-yl]-2-fluorophenyl}-2,5-difluorobenzenesulfonamide], the IC50 in experiment [1] (setting [4]) is < 100 nM; in experiment [1] (setting [5]), ≤ 3.16 nM; in experiment [2] (setting [6]) it was < 100 nM; in experiment [2] (setting [7]), < 100 nM; in experiment [3] (setting [8]), < 100 nM; in experiment [3] (setting [9]) it was < 100 nM.

In the case of `CS(=O)(=O)N1CCC(Nc2nccc(-c3sc(N4CCOCC4)nc3-c3cccc(NS(=O)(=O)c4cc(F)ccc4F)c3F)n2)CC1` [Example 82, 2,5-Difluoro-N-{2-fluoro-3-[5-(2-{[1-(methylsulfonyl)-4-piperidinyl]amino}-4-pyrimidinyl)-2-(4-morpholinyl)-1,3-thiazol-4-yl]phenyl}benzenesulfonamide], the IC50 in experiment [1], in experiment [2] (setting [6]) and in experiment [3] (setting [8]) was < 100 nM throughout.

For `CC(C)Nc1nccc(-c2sc(N3CCOCC3)nc2-c2cccc(NS(=O)(=O)c3cc(F)ccc3F)c2F)n1` [Example 83, 2,5-Difluoro-N-{2-fluoro-3-[5-{2-[(1-methylethyl)amino]-4-pyrimidinyl}-2-(4-morpholinyl)-1,3-thiazol-4-yl]phenyl}benzenesulfonamide], the IC50 in experiment [1] (setting [4]) is < 100 nM; in experiment [1] (setting [5]) it was ≤ 3.16 nM; in experiment [2] (setting [6]), < 100 nM; in experiment [2] (setting [7]), < 100 nM; in experiment [3] (setting [8]), < 100 nM; in experiment [3] (setting [9]), < 100 nM.

`CC(C)c1nc(-c2cccc(NS(=O)(=O)c3cccc(F)c3)c2)c(-c2ccnc(NCC(=O)O)n2)s1` [Example 85, N-{4-[4-(3-{[(3-Fluorophenyl)sulfonyl]amino}phenyl)-2-(1-methylethyl)-1,3-thiazol-5-yl]-2-pyrimidinyl}glycine]: the IC50 in experiment [1] (setting [4]) was 100 to 1000 nM; in experiment [1] (setting [5]) it was 31.6 to 1000 nM; in experiment [2] (setting [6]), > 1000 nM; in experiment [3] (setting [8]), > 1000 nM.

Regarding `CNc1nccc(-c2sc(C(C)C)nc2-c2cccc(NS(=O)(=O)c3cccc(F)c3)c2)n1` [Example 86, 3-Fluoro-N-{3-[5-[2-(methylamino)-4-pyrimidinyl]-2-(1-methylethyl)-1,3-thiazol-4-yl]phenyl}benzenesulfonamide], the IC50 was < 100 nM in experiment [1] (setting [4]); 31.6 to 1000 nM in experiment [1] (setting [5]); > 1000 nM in experiment [2] (setting [6]); 1000 to 10000 nM in experiment [2] (setting [7]); > 1000 nM in experiment [3] (setting [8]); 1000 to 10000 nM in experiment [3] (setting [9]).

Consider `CC(C)CNc1nccc(-c2sc(N3CCOCC3)nc2-c2cccc(NS(=O)(=O)c3c(F)cccc3F)c2F)n1` [Example 91, 2,6-Difluoro-N-{2-fluoro-3-[5-{2-[(2-methylpropyl)amino]-4-pyrimidinyl}-2-(4-morpholinyl)-1,3-thiazol-4-yl]phenyl}benzenesulfonamide], for which the IC50 in experiment [1] (setting [4]) was < 100 nM; in experiment [1] (setting [5]), ≤ 3.16 nM; in experiment [2] (setting [6]) it was < 100 nM; in experiment [2] (setting [7]), < 100 nM; in experiment [3] (setting [8]), < 100 nM; in experiment [3] (setting [9]) it was < 100 nM.

As to `CC(C)CNc1nccc(-c2sc(C(C)(C)C)nc2-c2cccc(NS(=O)(=O)c3cc(F)ccc3F)c2F)n1` [Example 92, N-[3-(2-(1,1-Dimethylethyl)-5-{2-[(2-methylpropyl)amino]-4-pyrimidinyl}-1,3-thiazol-4-yl)-2-fluorophenyl]-2,5-difluorobenzenesulfonamide], the IC50 in experiment [1] (setting [4]) is < 100 nM; in experiment [1] (setting [10]) it was 3.16 to 31.6 nM; in experiment [2] (setting [6]), < 100 nM; in experiment [2] (setting [7]) it was < 100 nM; in experiment [3] (setting [8]), < 100 nM; in experiment [3] (setting [9]), < 100 nM.

Regarding `CC(C)c1nc(-c2ccc(F)c(NS(=O)(=O)c3c(F)cccc3F)c2)c(-c2ccnc(NCC(F)F)n2)s1` [Example 93, N-{5-[5-{2-[(2,2-Difluoroethyl)amino]-4-pyrimidinyl}-2-(1-methylethyl)-1,3-thiazol-4-yl]-2-fluorophenyl}-2,6-difluorobenzenesulfonamide], the IC50 in experiment [1] (setting [4]) is < 100 nM; in experiment [1] (setting [10]) it was 3.16 to 31.6 nM; in experiment [2] (setting [6]), 100 to 1000 nM; in experiment [2] (setting [7]), 100 to 1000 nM; in experiment [3] (setting [8]) it was 100 to 1000 nM; in experiment [3] (setting [9]), 100 to 1000 nM.

Take `CC(C)(C)c1nc(-c2cccc(NS(=O)(=O)c3cc(F)ccc3F)c2F)c(-c2ccnc(NCC(F)(F)F)n2)s1` [Example 94, N-[3-(2-(1,1-Dimethylethyl)-5-{2-[(2,2,2-trifluoroethyl)amino]-4-pyrimidinyl}-1,3-thiazol-4-yl)-2-fluorophenyl]-2,5-difluorobenzenesulfonamide]: the IC50 in experiment [1] (setting [4]) was < 100 nM; in experiment [1] (setting [10]) it was 3.16 to 31.6 nM; in experiment [2] (setting [6]), 100 to 1000 nM; in experiment [2] (setting [7]), 100 to 1000 nM; in experiment [3] (setting [8]), 100 to 1000 nM; in experiment [3] (setting [9]), 100 to 1000 nM.

`CC(C)c1nc(-c2ccc(F)c(NS(=O)(=O)c3c(F)cccc3F)c2)c(-c2ccnc(NCCCN3CCCC3=O)n2)s1` [Example 95, 2,6-Difluoro-N-{2-fluoro-5-[2-(1-methylethyl)-5-(2-{[3-(2-oxo-1-pyrrolidinyl)propyl]amino}-4-pyrimidinyl)-1,3-thiazol-4-yl]phenyl}benzenesulfonamide]: the IC50 in experiment [1] (setting [4]) was < 100 nM; in experiment [1] (setting [5]), 31.6 to 1000 nM; in experiment [2] (setting [6]) it was 100 to 1000 nM; in experiment [2] (setting [7]), 100 to 1000 nM; in experiment [3] (setting [8]) it was 100 to 1000 nM; in experiment [3] (setting [9]), 100 to 1000 nM.

With `CC(C)(C)c1nc(-c2cccc(NS(=O)(=O)c3cc(F)ccc3F)c2F)c(-c2ccnc(NCCCN3CCCC3=O)n2)s1` [Example 96, N-{3-[2-(1,1-Dimethylethyl)-5-(2-{[3-(2-oxo-1-pyrrolidinyl)propyl]amino}-4-pyrimidinyl)-1,3-thiazol-4-yl]-2-fluorophenyl}-2,5-difluorobenzenesulfonamide], the IC50 is < 100 nM in experiment [1] (setting [4]); ≤ 3.16 nM in experiment [1] (setting [5]); < 100 nM in experiment [2] (setting [6]); < 100 nM in experiment [2] (setting [7]); < 100 nM in experiment [3] (setting [8]); < 100 nM in experiment [3] (setting [9]).

As to `CC(C)(C)c1nc(-c2cccc(NS(=O)(=O)c3cc(F)ccc3F)c2F)c(-c2ccnc(NCCN3CCCC3=O)n2)s1` [Example 97, N-{3-[2-(1,1-Dimethylethyl)-5-(2-{[2-(2-oxo-1-pyrrolidinyl)ethyl]amino}-4-pyrimidinyl)-1,3-thiazol-4-yl]-2-fluorophenyl}-2,5-difluorobenzenesulfonamide], the IC50 in experiment [1] (setting [4]) is < 100 nM; in experiment [1] (setting [5]), ≤ 3.16 nM; in experiment [2] (setting [6]), < 100 nM; in experiment [2] (setting [7]), 100 to 1000 nM; in experiment [3] (setting [8]), < 100 nM; in experiment [3] (setting [9]), < 100 nM.

Consider `CC(C)(C)c1nc(-c2cccc(NS(=O)(=O)c3cc(F)ccc3F)c2F)c(-c2ccnc(NCCNC(=O)CO)n2)s1` [Example 98, N-{2-([4-[4-(3-{[(2,5-Difluorophenyl)sulfonyl]amino}-2-fluorophenyl)-2-(1,1-dimethylethyl)-1,3-thiazol-5-yl]-2-pyrimidinyl}amino)ethyl]-2-hydroxyacetamide], for which the IC50 in experiment [1] (setting [4]) was < 100 nM; in experiment [1] (setting [5]), ≤ 3.16 nM; in experiment [2] (setting [6]), < 100 nM; in experiment [2] (setting [7]), < 100 nM; in experiment [3] (setting [8]), < 100 nM; in experiment [3] (setting [9]), < 100 nM.
